Laboratory results: patent publication US10526291B2, “Potent dual BRD4-kinase inhibitors as cancer therapeutics” (H. Lee Moffitt Cancer Center and Research Institute, Inc., priority 2014, dated 2020)
Where “and” joins values, the source holds several entries; their conditions need not be identical. Equal entries are not always repeated.

How the values were obtained:
HEK293 = HEK293 cell IC50; format: cell-based; details: Homo sapiens
BRD4 [1] = target: T1, BRD4 (Homo sapiens, UniProt O60885); experiment: Differential Scanning Fluorimetry (DSF), stability of BRD4 upon ligand binding; details: for ΔTm at 4 µM / DSF ΔTm (° C.): 100 μM protein, 4 μM compound and 2% DMSO; for IC50: estimated
Procedure: DSF=Differential Scanning Fluorimetry; provides a measure of the increased stability of BRD4 upon ligand binding The DSF experiment was run at 100 μM protein, 4 μM compound and 2% DMSO.

MM.1S cells = experiment: MM.1S cell survival, MTT assay; format: cell-based; details: Homo sapiens, MM1.S, 72 h, 72 hours compound exposure
JAK2 = target: T2, JAK2 (Homo sapiens, UniProt O60674); experiment: JAK2 IC50 (RB, commercial kinase panel); format: biochemical
T2 construct: purchased

SAOS-2 = SAOS-2 cell IC50; format: cell-based; details: Homo sapiens
UKE-1 = UKE-1 cell IC50; format: cell-based; details: UKE1
MV4-11 AML cells = experiment: MV-4-11 cell IC50 (antiproliferative activity); format: cell-based; details: Homo sapiens
Procedure: Cellular activity of promising compounds is assessed using MM.1S and MV4-11 AML cells using c-Myc levels as biomarker (6-12 hr treatment) and antiproliferative activity (48-72 hr treatment) as described (Ciceri et al., Dual kinase-bromodomain inhibitors for rationally designed polypharmacology. Nat Chem Biol 2014).

c-Myc in MM.1S cells = details: literature; cited from earlier work
FLT3 = target: T3, FLT3 (Homo sapiens, UniProt P36888); experiment: FLT3 IC50 (RB, commercial kinase panel); format: biochemical
T3 construct: purchased
T3 sequence (P36888 27-993): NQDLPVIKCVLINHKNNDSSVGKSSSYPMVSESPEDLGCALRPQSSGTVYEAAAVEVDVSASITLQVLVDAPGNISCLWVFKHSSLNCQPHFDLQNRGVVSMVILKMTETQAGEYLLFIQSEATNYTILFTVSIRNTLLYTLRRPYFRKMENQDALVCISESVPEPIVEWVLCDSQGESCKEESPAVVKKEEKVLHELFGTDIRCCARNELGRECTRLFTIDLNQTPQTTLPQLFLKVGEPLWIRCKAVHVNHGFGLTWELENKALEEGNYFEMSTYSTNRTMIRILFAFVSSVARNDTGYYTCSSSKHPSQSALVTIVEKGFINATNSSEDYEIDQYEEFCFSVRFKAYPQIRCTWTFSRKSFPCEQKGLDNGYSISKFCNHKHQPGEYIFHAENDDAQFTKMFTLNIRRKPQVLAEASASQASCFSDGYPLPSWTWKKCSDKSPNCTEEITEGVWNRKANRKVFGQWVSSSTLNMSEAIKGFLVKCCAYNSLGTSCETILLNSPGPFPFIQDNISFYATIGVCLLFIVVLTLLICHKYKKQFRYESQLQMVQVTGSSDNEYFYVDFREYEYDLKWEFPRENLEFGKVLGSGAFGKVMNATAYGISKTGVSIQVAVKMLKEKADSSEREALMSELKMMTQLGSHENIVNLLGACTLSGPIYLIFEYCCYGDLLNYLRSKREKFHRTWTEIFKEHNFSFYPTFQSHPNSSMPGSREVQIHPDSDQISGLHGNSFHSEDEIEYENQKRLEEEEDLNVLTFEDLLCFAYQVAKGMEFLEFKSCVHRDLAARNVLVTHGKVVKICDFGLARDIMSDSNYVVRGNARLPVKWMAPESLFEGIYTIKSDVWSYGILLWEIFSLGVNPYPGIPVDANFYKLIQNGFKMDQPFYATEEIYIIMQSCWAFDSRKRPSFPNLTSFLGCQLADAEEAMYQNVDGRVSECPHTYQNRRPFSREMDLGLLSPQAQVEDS

BRDT = target: T4, BRDT (Homo sapiens, UniProt Q58F21); experiment: BRDT IC50 (RB, commercial BRD panel); format: binding
T4 construct: purchased

BRD3 = target: T5, BRD3 (Homo sapiens, UniProt Q15059); experiment: BRD3 IC50 (RB, commercial BRD panel); format: binding
T5 construct: purchased

BRD2 = target: T6, BRD2 (Homo sapiens, UniProt P25440); experiment: BRD2 IC50 (RB, commercial BRD panel); format: binding
T6 construct: purchased

BRD4 [2] = target: T1, BRD4; experiment: BRD4 IC50 (RB, commercial BRD panel); format: binding; details: read-out: BRD4 IC50

T2 sequence (O60674 whole entry): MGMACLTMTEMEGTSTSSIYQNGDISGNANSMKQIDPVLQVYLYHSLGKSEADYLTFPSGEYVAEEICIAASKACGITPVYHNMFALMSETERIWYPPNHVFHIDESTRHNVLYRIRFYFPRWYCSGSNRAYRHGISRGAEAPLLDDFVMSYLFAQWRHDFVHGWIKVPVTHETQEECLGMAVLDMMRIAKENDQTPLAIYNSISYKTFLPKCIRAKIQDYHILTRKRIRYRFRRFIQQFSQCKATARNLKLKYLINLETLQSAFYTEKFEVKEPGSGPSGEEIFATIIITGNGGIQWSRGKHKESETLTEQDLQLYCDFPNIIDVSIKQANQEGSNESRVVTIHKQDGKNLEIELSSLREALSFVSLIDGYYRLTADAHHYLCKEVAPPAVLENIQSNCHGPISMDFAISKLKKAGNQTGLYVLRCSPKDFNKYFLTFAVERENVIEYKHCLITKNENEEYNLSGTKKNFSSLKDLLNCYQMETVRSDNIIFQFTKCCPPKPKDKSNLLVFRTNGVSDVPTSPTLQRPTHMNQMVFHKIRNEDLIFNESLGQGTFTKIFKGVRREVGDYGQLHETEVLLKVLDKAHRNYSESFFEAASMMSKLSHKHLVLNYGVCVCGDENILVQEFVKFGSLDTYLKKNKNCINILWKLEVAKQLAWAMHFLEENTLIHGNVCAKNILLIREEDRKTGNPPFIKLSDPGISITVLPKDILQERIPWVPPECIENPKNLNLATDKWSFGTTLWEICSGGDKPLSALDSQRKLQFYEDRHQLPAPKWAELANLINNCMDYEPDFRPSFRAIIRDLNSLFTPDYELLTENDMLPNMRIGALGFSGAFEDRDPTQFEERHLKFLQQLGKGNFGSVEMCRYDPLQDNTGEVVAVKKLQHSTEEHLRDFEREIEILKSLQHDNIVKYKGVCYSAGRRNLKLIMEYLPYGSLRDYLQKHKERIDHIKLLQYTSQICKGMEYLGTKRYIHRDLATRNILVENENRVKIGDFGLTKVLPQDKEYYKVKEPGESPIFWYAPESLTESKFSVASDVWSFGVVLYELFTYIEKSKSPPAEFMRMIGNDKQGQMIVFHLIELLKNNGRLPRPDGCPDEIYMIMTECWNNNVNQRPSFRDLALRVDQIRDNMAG
T5 sequence (Q15059 whole entry): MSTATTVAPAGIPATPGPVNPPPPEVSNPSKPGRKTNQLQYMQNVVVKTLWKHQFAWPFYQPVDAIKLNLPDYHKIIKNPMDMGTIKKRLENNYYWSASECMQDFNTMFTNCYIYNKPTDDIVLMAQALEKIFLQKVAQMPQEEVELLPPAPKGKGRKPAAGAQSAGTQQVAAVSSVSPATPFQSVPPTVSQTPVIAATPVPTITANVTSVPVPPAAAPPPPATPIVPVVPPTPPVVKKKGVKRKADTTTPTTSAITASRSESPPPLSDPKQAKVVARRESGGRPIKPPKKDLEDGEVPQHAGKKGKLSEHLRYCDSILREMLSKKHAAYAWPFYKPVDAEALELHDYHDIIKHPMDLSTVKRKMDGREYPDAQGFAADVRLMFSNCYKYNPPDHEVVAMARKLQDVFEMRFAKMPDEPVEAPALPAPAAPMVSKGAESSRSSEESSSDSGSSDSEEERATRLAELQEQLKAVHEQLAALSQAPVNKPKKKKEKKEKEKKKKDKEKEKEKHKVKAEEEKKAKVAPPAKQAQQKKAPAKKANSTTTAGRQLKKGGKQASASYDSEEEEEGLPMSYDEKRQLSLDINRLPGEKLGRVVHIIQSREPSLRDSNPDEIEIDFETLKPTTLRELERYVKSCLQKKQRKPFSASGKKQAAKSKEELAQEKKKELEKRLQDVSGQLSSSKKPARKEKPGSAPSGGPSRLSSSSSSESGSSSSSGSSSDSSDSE
T6 sequence (P25440 whole entry): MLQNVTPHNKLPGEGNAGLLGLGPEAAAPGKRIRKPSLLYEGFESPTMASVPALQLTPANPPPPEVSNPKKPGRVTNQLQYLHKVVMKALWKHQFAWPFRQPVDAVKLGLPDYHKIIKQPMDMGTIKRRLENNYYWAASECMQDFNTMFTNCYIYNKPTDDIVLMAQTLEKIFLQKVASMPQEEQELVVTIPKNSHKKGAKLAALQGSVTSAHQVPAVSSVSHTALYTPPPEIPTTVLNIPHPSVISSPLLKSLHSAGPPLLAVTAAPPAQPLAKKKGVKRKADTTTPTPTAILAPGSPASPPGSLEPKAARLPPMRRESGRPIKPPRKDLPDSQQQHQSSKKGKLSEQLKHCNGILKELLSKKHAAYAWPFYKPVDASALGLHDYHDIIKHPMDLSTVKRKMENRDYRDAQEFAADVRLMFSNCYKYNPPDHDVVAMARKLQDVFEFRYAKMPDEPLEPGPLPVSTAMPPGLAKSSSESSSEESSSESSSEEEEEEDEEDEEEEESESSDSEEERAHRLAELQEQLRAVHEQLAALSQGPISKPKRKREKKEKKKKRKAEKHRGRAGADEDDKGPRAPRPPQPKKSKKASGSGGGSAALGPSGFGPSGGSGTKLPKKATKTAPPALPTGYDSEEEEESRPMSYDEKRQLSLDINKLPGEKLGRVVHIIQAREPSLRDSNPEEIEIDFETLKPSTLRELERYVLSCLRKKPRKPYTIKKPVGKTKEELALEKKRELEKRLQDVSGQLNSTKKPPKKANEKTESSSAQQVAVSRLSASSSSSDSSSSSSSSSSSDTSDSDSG

| SMILES | IC50 (HEK293) [nM] | ΔTm at 4 µM (BRD4 [1]) [°C] | IC50 (BRD4 [1]) | IC50 (MM.1S cells) [nM] | also measured |
| --- | --- | --- | --- | --- | --- |
| COc1cc(Nc2nc(Nc3ccc(N4CCN(C)CC4)cc3)ncc2Cl)ccc1Cl | 1400 | 4.8 ± 0.058 | 540 nM | 450 | – |
| Cc1nc(Nc2ccc(N3CCN(C)CC3)cc2)nc(Nc2cccc(S(=O)(=O)NC(C)(C)C)c2)c1C | 120000 | 5.3 ± 0.064 | 370 nM | – | – |
| Cc1cnc(Nc2ccc(N3CCN(C)CC3)cc2)nc1Nc1cccc(NS(=O)(=O)C2CC2)c1 | 1000 | 6.7 ± 0.11 | 130 nM | 600 | – |
| COc1cc(Nc2nc(Nc3ccc(N4CCN(C)CC4)cc3)nc(C)c2C)ccc1Cl | 840 | 4.1 ± 0.14 | 930 nM | – | IC50 (JAK2): 14000 nM |
| COc1cc(Nc2nc(Nc3ccc(N4CCN(C)CC4)cc3)nc(C)c2C)cc(OC)c1OC | 1400 | 5.9 ± 0.14 | 230 nM | 5600 | – |
| COc1cc(Nc2nc(Nc3ccc(N4CCN(C)CC4)cc3)ncc2Cl)cc(OC)c1OC | 2000 | 5.2 ± 0.02 | 400 nM | – | – |
| CN1CCN(c2ccc(Nc3ncc(Cl)c(Nc4ccc5c(c4)OCCO5)n3)cc2)CC1 | – | 2.6 ± 0.15 | 2940 nM | – | – |
| CN1CCN(c2ccc(Nc3ncc(Cl)c(Nc4ccc5c(c4)OCO5)n3)cc2)CC1 | – | 0.073 ± 0.083 | 20500 nM | – | – |
| COc1cc(Nc2nc(Nc3ccc(N4CCN(C)CC4)cc3)ncc2Cl)c(OC)cc1Cl | – | 0.073 ± 0.13 | 20500 nM | – | – |
| CCc1cnc(Nc2ccc(N3CCN(C)CC3)cc2)nc1Nc1ccc(Cl)c(OC)c1 | – | 1.3 ± 0.11 | 7980 nM | – | – |
| COc1cccc(Nc2nc(Nc3ccc(N4CCN(C)CC4)cc3)ncc2Cl)c1 | – | 1.68 ± 0.078 | 5960 nM | – | – |
| CCOc1cccc(Nc2nc(Nc3ccc(N4CCN(C)CC4)cc3)ncc2Cl)c1 | – | 4.3 ± 0.12 | 790 nM | – | – |
| COc1ccc(Nc2nc(Nc3ccc(N4CCN(C)CC4)cc3)ncc2C)cc1OC | – | 5.6 ± 0.059 | 290 nM | – | – |
| Cc1cnc(Nc2ccc(N3CCN(C)CC3)cc2)nc1Nc1cccc(S(=O)(=O)NC2CC2)c1 | 1200 | 7.3 ± 0.099 | 79 nM | 1200 | – |
| CN1CCN(c2ccc(Nc3ncc(Cl)c(Nc4cccc(NS(=O)(=O)C5CC5)c4)n3)cc2)CC1 | 3600 | 6.9 ± 0.15 | 110 nM | – | – |
| CN1CCN(c2ccc(Nc3ncc(Cl)c(Nc4cccc(S(=O)(=O)NC5CC5)c4)n3)cc2)CC1 | 1800 | 6.4 ± 0.15 | 160 nM | 880 | – |

| SMILES | IC50 (HEK293) [nM] | ΔTm at 4 µM (BRD4 [1]) [°C] | IC50 (BRD4 [1]) | IC50 (MM.1S cells) [nM] | also measured |
| --- | --- | --- | --- | --- | --- |
| COc1cc(Nc2nc(Nc3ccc(N4CCN(C)CC4)cc3)ncc2C)cc(OC)c1OC | 970 | 6.9 ± 0.1 | 110 nM | – | – |
| COc1cc(Nc2nc(Nc3ccc(N4CCN(C)CC4)cc3)ncc2C)cc(OC)c1Cl | – | 7.6 ± 0.15 | 63 nM | 1100 | – |
| CN1CCN(c2ccc(Nc3ncc(Cl)c(Nc4cccc(S(=O)(=O)NC(C)(C)CO)c4)n3)cc2)CC1 | 1500 | 6.1 ± 0.15 | 200 nM | – | – |
| Cc1cnc(Nc2ccc(N3CCN(C)CC3)cc2)nc1Nc1cccc(S(=O)(=O)NC(C)(C)CO)c1 | 3600 | 6.5 ± 0.18 | 150 nM | – | – |
| Cc1nc(Nc2ccc(N3CCN(C)CC3)cc2)nc(Nc2cccc(S(=O)(=O)NC(C)(C)CO)c2)c1C | 4300 | 5.5 ± 0.17 | 320 nM | – | – |
| COc1cc(Nc2nc(Nc3ccc(N4CCN(C)CC4)cc3)nc3ccccc23)ccc1Cl | 1700 | 4.9 ± 0.13 | 500 nM | – | – |
| CN1CCN(c2ccc(Nc3nc4c(c(Nc5cccc(NS(=O)(=O)C(C)(C)C)c5)n3)CCCC4)cc2)CC1 | – | 6.9 ± 0.038 | 110 nM | 1700 | IC50 (SAOS-2): 2500 nM |
| Cc1cnc(Nc2ccc(C3CCN(C)CC3)cc2)nc1Nc1ccc(Cl)c(NS(=O)(=O)C(C)(C)C)c1 | – | 10 ± 0.11 | 7.4 nM and 9.9 nM | – | DSF ΔTm (° C.) (BRD4 [1]): 10 ± 0.11 10 ± 0.11 °C; IC50 (UKE-1): 470 nM; IC50 (MV4-11 AML cells): 98 nM |
| Cc1cnc(Nc2ccc(C(=O)NC3CCN(C)CC3)cc2)nc1Nc1ccc(Cl)c(NS(=O)(=O)C(C)(C)C)c1 | – | 11 ± 0.12 | 6.1 nM and 4.6 nM | – | DSF ΔTm (° C.) (BRD4 [1]): 11 ± 0.12 11 ± 0.12 °C; IC50 (UKE-1): 1600 nM; IC50 (MV4-11 AML cells): 71 nM |
| CN1CCC(NC(=O)c2ccc(Nc3ncc(F)c(Nc4ccc(Cl)c(NS(=O)(=O)C(C)(C)C)c4)n3)cc2F)CC1 | – | 9.91 ± 0.039 | 40.5 nM | 120 | – |
| CN1CCC(NC(=O)c2ccc(Nc3ncc(Cl)c(Nc4ccc(Cl)c(NS(=O)(=O)C(C)(C)C)c4)n3)cc2F)CC1 | – | 12 ± 0.5 | 10.5 nM | 90 | – |
| CC[C@@H]1C(=O)N(C)c2cnc(Nc3ccc(C(=O)NC4CCN(C)CC4)cc3OC)nc2N1C1CCCC1 [BI2536] | – | – | – | – | downregulation of c-Myc (c-Myc in MM.1S cells): strong downregulation of c-Myc |
| Cc1cnc(Nc2ccc(N3CCN(C)CC3)cc2)nc1Nc1cccc(S(=O)(=O)NC(C)(C)C)c1 [TG101209] | – | – | – | – | downregulation of c-Myc (c-Myc in MM.1S cells): strong downregulation of c-Myc |
| Cc1cnc(Nc2ccc(OCCN3CCCC3)cc2)nc1Nc1cccc(S(=O)(=O)NC(C)(C)C)c1 [TG101348] | – | – | – | – | downregulation of c-Myc (c-Myc in MM.1S cells): strong downregulation of c-Myc |
| Cc1cnc(Nc2ccc(N3CCN(C)CC3)cc2)nc1Nc1cccc(S(=O)(=O)NC(C)(C)C)c1 [drawing 27] | – | 6.83 ± 0.129 | – | – | DSF ΔTm (° C.) (BRD4 [1]): 7.55 ± 0.154 °C; IC50 (SAOS-2): 425 nM |
| Cc1cnc(Nc2ccc(N3CCN(C)CC3)cc2)nc1Nc1ccc(Cl)c(NS(=O)(=O)C(C)(C)C)c1 [drawing 109] | – | 9.57 ± 0.086 | 10 nM | 74 | IC50 (JAK2): 11.2 nM; IC50 (FLT3): 9.71 nM; IC50 (SAOS-2): 567 nM; IC50 (BRDT): 27.8 nM; IC50 (UKE-1): 512 nM; IC50 (BRD3): 16.5 nM; IC50 (MV4-11 AML cells): 186 nM; IC50 (BRD2): 81.4 nM; IC50 (BRD4 [2]): 4.04 nM |
